Tests used:
mice = assay: Initial topical test of 4% w/v formulation on mice; format: in vivo; details: 4% w/v cholecalciferol in absolute alcohol, 0.5 ml per animal
From the text: (§1) A formulation of the present invention was initially prepared and tested on mice and laboratory rats to determine the viability of the invention. The formulation contained cholecalciferol in an amount of 4% w/v and absolute alcohol. […] These studies are described in the following examples.

laboratory rats = assay: Initial topical test of 4% w/v formulation on laboratory rats; format: in vivo; details: 4% w/v cholecalciferol in absolute alcohol, 0.5 ml per animal
From the text: as §1

Bush Rat (Rattus rattus) = assay: Dermal application of cholecalciferol, Example 1 study (Table 1); format: in vivo; details: 1.0 ml of 20% cholecalciferol in absolute alcohol, topical; animal weight unknown
Description: (§2) Two formulations of the invention were prepared both containing cholecalciferol in solution with absolute alcohol. One of the formulations contained cholecalciferol in an amount of 20% w/v. The other formulation contained cholecalciferol in an amount of 40% w/v. The formulation was topically applied to several animal pest species in varying amounts and the animals were studied.

Ferret = assay: as above; format: in vivo; details: 2.0 ml of 40% cholecalciferol in absolute alcohol, topical; animal 902 g
Description: as §2

Hedgehog = assay: as above; format: in vivo; details: 1.5 ml of 20% cholecalciferol in absolute alcohol, topical; animal 515 g
Description: as §2

[1] = test system: Lab Rat (Rattus norvegicus); assay: as above; format: in vivo; details: 0.5 ml of 20% cholecalciferol in absolute alcohol, topical; animal weight unknown
Description: as §2

Rabbit = assay: as above; format: in vivo; details: 2.0 ml of 20% cholecalciferol in absolute alcohol, topical; animal 2.6 kg
Description: as §2

Weasel = assay: as above; format: in vivo; details: 1.5 ml of 40% cholecalciferol in absolute alcohol, topical
Description: as §2

[2] = Cholecalciferol concentration of test solution by normal phase liquid chromatography (stability of formulation); format: physicochemical
Description: To confirm the cholecalciferol concentration present and enable accurate exposure calculations when the test solution was applied to the stoats, a sub-sample (approximately 20 ml) of this solution was taken for analysis. Cholecalciferol concentration was determined by taking a sample of liquid which was warmed, mixed and 0.2 g weighed into a volumetric flask 30 ml of toluene was added, and this solution was sonicated without heating and made up to volume. The solution was diluted with hexane/isopropyl alcohol, filtered and analysed against an internal standard by normal phase liquid chromatography.
The test solution was analysed as containing 30% cholecalciferol with an uncertainty of 5%. This was lower than the nominal 40% cholecalciferol in the solution indicated by the analysis carried out the day after the solution was prepared. The assay was carried out on a sub-sample of solution taken 7 days after preparation, and also following the extraction of 6×1.5 ml aliquots of the solution for application to stoats.
This may mostly have occurred on exposure to air when aliquots of solution were drawn from the container for application to the stoats. Cholecalciferol preparations are sensitive to light and exposure to air, with oxidation and inactivation occurring over a few days in the presence of moist air. However, it is noted that even at a 30% concentration, the solution contained sufficient cholecalciferol to deliver an effective lethal dose to all six stoats in 1.5 ml.

weasels = assay: Proof of concept trial on wild weasels (Example 3 study); format: in vivo
From the text: Three wild weasels were caught for a proof of concept trial to determine if the formulation of the invention would be effective as a humane method of killing these pests. The weasels were caged separately in individual waterproof, roofed, wired enclosures of approximately 1 m^2. The animals were fed on raw meat, by simply placing the meat on a wire hooked into the side of the cages. In eating the animals simply pulled on and chewed the meat. Drinking water was available. Within each enclosure was a small box of 25×25 cm with a mesh roof. A vertical sliding door could be removed to provide an entrance to the enclosure and the enclosure was half filled with nesting material of hay. It was observed that the animals covered themselves in the hay and made pathways through it.
Each of the animals was then treated with a formulation comprising 32% cholecalciferol (resin form) in solution with the glycol ether, DGMEE, and observations were made.
The first animal, a male weasel weighing 157 grams, was treated by application of 1 ml of the formulation using a syringe to the back of the animal. This weasel died within 44 hours of application of the formulation.
The second animal, a female weasel weighing 94 grams, was treated using an eradication apparatus as described above. The electronically activated apparatus was placed into the cage of the animal. The apparatus comprised of a tunnel, including a sensing means comprising two pairs of sensors, and a tracking card to record the footprints of the weasel to establish that the animal had passed through the tunnel. An automatic dispensing means was operatively connected to the tunnel, so that when the weasel passed through the tunnel and the two pairs of sensors were covered ,simultaneously, the dispensing , means was automatically activated to deliver the formulation to the animal. In this manner, approximately 0.9 ml of the cholecalciferol formulation was applied to the back of the weasel as it passed through the tunnel of the apparatus. It was observed that some of the formulation was present on the tracking card so the weasel had not received the total volume of the formulation. The weasel died approximately 50 hours after receiving the formulation.
The third animal, a male weasel weighing 54 grams was treated by squirting approximately 1 ml of the formulation onto the back of the animal using a hand held syringe. This weasel died within about 39 hours of application of the formulation.

Rattus rattus (bush rat) = assay: Topical administration to live captured bush rats (Example 4 study); format: in vivo
Description: Three animals of the species Rattus rattus (also known as the bush rat) were live captured. They were placed in separate enclosures with on demand food and water supplies, and nesting material of dry hay. After 14 days of acclimatization to these conditions, the animals were each treated with a formulation comprising a solution of 33% cholecalciferol (resin form) in the glycol ether, DGMEE. Each animal was given a dose of about 3 ml of the formulation by topical administration to the back of the animal using a calibrated syringe. Each of the animals died within six days of receiving the formulation. The first rat, a male weighing 122 grams, weighed 106 grams at death. The second rat, a female weighing 108 grams, weighed 98 grams at death. The third rat, a male weighing 97 grams, weighed 90 grams at death.

## C=C1CC[C@H](O)C/C1=C/C=C1\CCC[C@]2(C)[C@@H]([C@H](C)CCCC(C)C)CC[C@@H]12 [cholecalciferol]
mice
  death of the animal: death of the animal occurred within a reasonably short time frame
Laboratory rats
  death of the animal: death of the animal occurred within a reasonably short time frame
Bush Rat (Rattus rattus)
  Observations: time to death: within 40 hours
Ferret
  Observations: time to death: within 48 hours
Hedgehog
  Observations: time to death: within 25 hours
[1]
  Observations: time to death: within 72 hours
Rabbit
  Observations: time to death: within 2 days
Weasel; animal 116 g
  Observations: time to death: within 43 hours
Weasel; animal 139 g
  Observations: time to death: within 36 hours
[2]; analysis carried out the day after the solution was prepared, absolute alcohol
  cholecalciferol concentration of test solution (nominal): 40%
[2]; during the 7 days from preparation to application
  change of cholecalciferol concentration in test solution: slight decline
[2]; sub-sample taken 7 days after preparation, after extraction of aliquots, uncertainty of 5%, absolute alcohol
  cholecalciferol concentration of test solution: 30%
weasels; female weasel 94 grams, approximately 0.9 ml of 32% cholecalciferol in DGMEE
  appetite after application: lost its appetite
weasels; female weasel 94 grams, approximately 0.9 ml of 32% cholecalciferol in DGMEE via eradication apparatus, not total volume received
  time to death: approximately 50 hours
weasels; male weasel 54 grams, approximately 1 ml of 32% cholecalciferol in DGMEE by hand held syringe
  time to death: ≤ 39 h
weasels; male weasel 157 grams, 1 ml of 32% cholecalciferol (resin) in DGMEE by syringe to the back
  time to death: ≤ 44 h
weasels; male weasel 157 grams, 1 ml of 32% cholecalciferol in DGMEE
  food consumption after application: ate only a small quantity of what it had previously been consuming
Rattus rattus (bush rat); first rat, male weighing 122 grams, about 3 ml of 33% cholecalciferol in DGMEE
  weight at death: 106 grams
Rattus rattus (bush rat); over the first few days of treatment, about 3 ml of 33% cholecalciferol in DGMEE
  hair loss at application site: hair loss was observed on all of the animals
Rattus rattus (bush rat); second rat, female weighing 108 grams, about 3 ml of 33% cholecalciferol in DGMEE
  weight at death: 98 grams
Rattus rattus (bush rat); third rat, male weighing 97 grams, about 3 ml of 33% cholecalciferol in DGMEE
  weight at death: 90 grams
Rattus rattus (bush rat); three bush rats, about 3 ml of 33% cholecalciferol (resin) in DGMEE, topical to the back
  time to death: six
